Molecular target: T1, GPR23 (Homo sapiens, UniProt Q99677)
T1 construct: gene LPAR4; native receptor in U87 glioma cell membranes; control vs GPR23-siRNA silenced
Test: [3H]-guanine radioligand saturation binding on U87 membranes; Bmax falls on GPR23 silencing

T1 sequence (Q99677 whole entry): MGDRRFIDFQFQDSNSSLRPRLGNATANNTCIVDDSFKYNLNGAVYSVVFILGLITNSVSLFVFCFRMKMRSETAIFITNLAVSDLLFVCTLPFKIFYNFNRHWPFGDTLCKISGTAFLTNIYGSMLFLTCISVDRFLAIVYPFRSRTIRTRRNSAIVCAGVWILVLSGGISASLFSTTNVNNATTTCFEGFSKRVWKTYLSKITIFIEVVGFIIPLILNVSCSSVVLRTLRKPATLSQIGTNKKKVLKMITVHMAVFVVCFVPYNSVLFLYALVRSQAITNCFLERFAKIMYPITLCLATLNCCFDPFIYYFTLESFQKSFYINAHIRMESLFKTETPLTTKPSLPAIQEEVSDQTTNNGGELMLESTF

Nc1nc2nc[nH]c2c(=O)[nH]1 [GUA, guanine] gave a Kd of 29.4 ± 4.07 nM.

Source: publication PMC9527276, “Guanine inhibits the growth of human glioma and melanoma cell lines by interacting with GPR23” (Frontiers in Pharmacology, 2022)
